Source: patent US20120171201A1

Columns and labels:
[1] = Pharmacokinetics in tumor free Balb/C mice; type: in vivo; settings: Released from Compound 9; single injection 20 mg/kg Compound 9, Balb/C mice, plasma
From the text: Pharmacokinetic analysis was done using non-compartmental analysis (WinNonlin).

[2] = Solubility in aqueous saline solution

## CCc1c2c(nc3ccc(O)cc13)-c1cc3c(c(=O)n1C2)COC(=O)[C@]3(O)CC
[1]
  Terminal t 1/2: 14.2 h
[2]
  Solubility in Saline: ^a7-ethyl-10-hydroxycamptothecin is not soluble in saline.
